From ChEMBL document CHEMBL1908284, “Rational use of in vitro P-glycoprotein assays in drug discovery” (J Pharmacol Exp Ther, 2001)
Starred links: 1 amine or outer side, 2 acyl side, 3 side chain; linkers in the order of their positions; H or OH if unused. Positions of bridges follow the written chain, without caps; N, C: chain ends. Non-standard residues stand in square brackets, D forms with d. Residues, ends and D or L forms follow the SMILES beside them. Chains are numbered I, II in the order given. Actinocin(9to1) = Cc1c2oc3c(C)ccc(C(=O)[*:1])c3nc-2c(C(=O)[*:2])c(N)c1=O; NMeV = CN[C@H](C(=O)O)C(C)C; Sar = CNCC(=O)O

Legend:
[1] = molecular target: T1, ATP-dependent translocase ABCB1 (MDR1) (Homo sapiens, UniProt P08183); assay: in vitro; details: dog
T1 sequence (P08183 whole entry): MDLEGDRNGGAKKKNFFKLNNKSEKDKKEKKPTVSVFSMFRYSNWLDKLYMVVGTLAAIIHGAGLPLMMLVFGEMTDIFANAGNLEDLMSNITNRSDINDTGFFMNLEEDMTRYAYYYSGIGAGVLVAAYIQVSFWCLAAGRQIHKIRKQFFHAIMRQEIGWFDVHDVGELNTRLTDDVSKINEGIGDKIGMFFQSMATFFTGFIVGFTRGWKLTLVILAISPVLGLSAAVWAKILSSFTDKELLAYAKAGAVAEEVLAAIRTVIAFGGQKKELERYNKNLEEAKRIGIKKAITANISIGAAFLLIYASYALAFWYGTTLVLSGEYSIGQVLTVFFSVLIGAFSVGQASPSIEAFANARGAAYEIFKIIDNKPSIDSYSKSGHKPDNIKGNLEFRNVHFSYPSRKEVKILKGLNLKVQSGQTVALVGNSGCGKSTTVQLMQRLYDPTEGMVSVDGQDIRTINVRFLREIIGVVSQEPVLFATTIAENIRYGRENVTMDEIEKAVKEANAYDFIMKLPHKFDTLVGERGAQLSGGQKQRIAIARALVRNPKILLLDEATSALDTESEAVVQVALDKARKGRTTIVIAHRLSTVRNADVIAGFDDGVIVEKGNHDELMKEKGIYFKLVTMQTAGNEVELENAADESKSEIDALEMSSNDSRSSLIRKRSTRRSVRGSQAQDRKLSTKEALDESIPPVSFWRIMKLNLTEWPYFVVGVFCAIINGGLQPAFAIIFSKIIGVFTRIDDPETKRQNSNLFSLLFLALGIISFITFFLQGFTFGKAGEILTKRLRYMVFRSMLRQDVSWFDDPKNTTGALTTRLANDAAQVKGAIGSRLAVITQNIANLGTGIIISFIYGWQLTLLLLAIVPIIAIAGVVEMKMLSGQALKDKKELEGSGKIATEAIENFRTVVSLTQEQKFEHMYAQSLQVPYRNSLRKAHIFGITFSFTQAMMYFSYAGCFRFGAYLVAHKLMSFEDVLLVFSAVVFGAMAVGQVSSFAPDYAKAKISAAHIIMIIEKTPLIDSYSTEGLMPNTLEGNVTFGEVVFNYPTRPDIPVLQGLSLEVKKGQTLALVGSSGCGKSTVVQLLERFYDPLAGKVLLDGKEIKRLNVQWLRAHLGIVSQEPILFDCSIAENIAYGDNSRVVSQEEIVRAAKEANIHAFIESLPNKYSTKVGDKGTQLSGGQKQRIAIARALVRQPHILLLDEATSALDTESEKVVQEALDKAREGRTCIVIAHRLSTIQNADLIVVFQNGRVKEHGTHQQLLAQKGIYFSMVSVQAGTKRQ

[2] = molecular target: T1, ATP-dependent translocase ABCB1 (MDR1); assay: in vitro; details: dog; remark: listed apart in the source
[3] = molecular target: T2, ATP-dependent translocase ABCB1 (Homo sapiens, UniProt P08183); details: spodoptera frugiperda, sf9, 20 µM;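 note: Compound-stimulated ATPase activity measured in membrane preparations of MDR1-expressing Sf9 cells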
T2 sequence (P08183 whole entry): as above

[4] = molecular target: T1, ATP-dependent translocase ABCB1 (MDR1); assay: in vitro; details: dog; remark: listed apart in the source
[5] = molecular target: T2, ATP-dependent translocase ABCB1; assay: TP_TRANSPORTER: ATP hydrolysis in MDR1-expressing Sf9 cells; format: functional

| Structure (SMILES) | Papp B→A ([1]; MDCK-MDR1, Papp) | Papp A→B ([2]; MDCK-MDR1, Papp) | Ratio_ATPase activity [3] | efflux ratio ([4]; MDCK-MDR1, Ratio_Papp) | Activity [5] | Papp B→A ([1]; MDCK-MDR1) | Papp A→B ([2]; MDCK-MDR1) | efflux ratio ([4]; MDCK-MDR1) |
| --- | --- | --- | --- | --- | --- | --- | --- | --- |
| CC(C)(C)c1ccc(C(O)CCCN2CCC(C(O)(c3ccccc3)c3ccccc3)CC2)cc1 (stereo not drawn) [TERFENADINE] | 30.6 ×10⁻⁶ cm/s | 6.56 ×10⁻⁶ cm/s |  |  |  |  |  |  |
| CN(Cc1cnc2nc(N)nc(N)c2n1)c1ccc(C(=O)N[C@@H](CCC(=O)O)C(=O)O)cc1 [METHOTREXATE] | 0.706 ×10⁻⁶ cm/s | 1.05 ×10⁻⁶ cm/s | 0.91 | 0.67 |  |  |  |  |
| CC[C@]1(O)C[C@@H]2CN(CCc3c([nH]c4ccccc34)[C@@](C(=O)OC)(c3cc4c(cc3OC)N(C)[C@H]3[C@@](O)(C(=O)OC)[C@H](OC(C)=O)[C@]5(CC)C=CCN6CC[C@]43[C@@H]65)C2)C1 [VINBLASTINE] | 23.2 ×10⁻⁶ cm/s | < 1 ×10⁻⁶ cm/s | 4.31 | > 23 |  |  |  |  |
| C[C@@H]1C[C@H]2[C@@H]3CCC4=CC(=O)C=C[C@]4(C)[C@@]3(F)[C@@H](O)C[C@]2(C)[C@@]1(O)C(=O)CO [DEXAMETHASONE] | 53.7 ×10⁻⁶ cm/s | 4.35 ×10⁻⁶ cm/s | 1.15 | 12.4 |  |  |  |  |
| COc1cc2nc(N3CCN(C(=O)c4ccco4)CC3)nc(N)c2cc1OC [PRAZOSIN] | 66.1 ×10⁻⁶ cm/s | 14.3 ×10⁻⁶ cm/s | 3.4 | 4.63 |  |  |  |  |
| CCOC(=O)C1=C(C)NC(C)=C(C(=O)OC)C1c1cccc([N+](=O)[O-])c1 (stereo not drawn) [NITRENDIPINE] | 48.3 ×10⁻⁶ cm/s | 60.4 ×10⁻⁶ cm/s | 3.22 | 0.8 | substrate [+] |  |  |  |
| O=C1c2c(O)ccc(O)c2C(=O)c2c(NCCNCCO)ccc(NCCNCCO)c21 [MITOXANTRONE] | 0.644 ×10⁻⁶ cm/s | 0.191 ×10⁻⁶ cm/s |  |  |  |  |  |  |
| CNC(=C[N+](=O)[O-])NCCSCc1ccc(CN(C)C)o1 [RANITIDINE] | 1.95 ×10⁻⁶ cm/s | 1.44 ×10⁻⁶ cm/s | 1.23 | 1.35 |  |  |  |  |
| Cc1ncc2n1-c1ccc(Cl)cc1C(c1ccccc1F)=NC2 [MIDAZOLAM] |  |  | 3.82 |  | substrate [+] | 56.4 ×10⁻⁶ cm/s | 70.1 ×10⁻⁶ cm/s | 0.81 |
| CCC(C)n1ncn(-c2ccc(N3CCN(c4ccc(OCC5COC(Cn6cncn6)(c6ccc(Cl)cc6Cl)O5)cc4)CC3)cc2)c1=O (stereo not drawn) [ITRACONAZOLE] | 55.2 ×10⁻⁶ cm/s | 57.1 ×10⁻⁶ cm/s | 1.2 | 0.97 |  |  |  |  |
| NC12CC3CC(CC(C3)C1)C2 [AMANTADINE] | 15.7 ×10⁻⁶ cm/s | 18.6 ×10⁻⁶ cm/s |  |  |  |  |  |  |
| CC[C@H]1C(=O)Nc2ccc(F)cc2N1C(=O)OC(C)C [OPAVIRALINE] | 72.6 ×10⁻⁶ cm/s | 75.8 ×10⁻⁶ cm/s | 1.02 | 0.96 |  |  |  |  |
| CC(C)(C)NC(=O)[C@@H]1CN(Cc2cccnc2)CCN1C[C@@H](O)C[C@@H](Cc1ccccc1)C(=O)N[C@H]1c2ccccc2C[C@H]1O.O | 17.6 ×10⁻⁶ cm/s | 0.869 ×10⁻⁶ cm/s | 9.59 | 20.3 | substrate [+] |  |  |  |
| COc1ccc(C[C@H](N)C(=O)N[C@H]2[C@@H](O)[C@H](n3cnc4c(N(C)C)ncnc43)O[C@@H]2CO)cc1 [PUROMYCIN] | 3.56 ×10⁻⁶ cm/s | 1.15 ×10⁻⁶ cm/s | 1.21 | 3.1 | is not a substrate [-] |  |  |  |
| CNS(=O)(=O)Cc1ccc2[nH]cc(CCN(C)C)c2c1 | 1.3 ×10⁻⁶ cm/s | 0.953 ×10⁻⁶ cm/s | 1.23 | 1.37 |  |  |  |  |
| Nc1nc(N)c2nc(-c3ccccc3)c(N)nc2n1 | 18.4 ×10⁻⁶ cm/s | 18.5 ×10⁻⁶ cm/s | 1.12 | 0.99 |  |  |  |  |
| CN(C)CCCN1c2ccccc2Sc2ccc(Cl)cc21 [CHLORPROMAZINE] | 47.7 ×10⁻⁶ cm/s | 43.8 ×10⁻⁶ cm/s | 2.42 | 1.09 |  |  |  |  |
| COc1cc([C@@H]2c3cc4c(cc3[C@@H](O[C@@H]3O[C@@H]5CO[C@@H](C)O[C@H]5[C@H](O)[C@H]3O)[C@H]3COC(=O)[C@H]23)OCO4)cc(OC)c1O [ETOPOSIDE] | 6.06 ×10⁻⁶ cm/s | 2.14 ×10⁻⁶ cm/s |  |  |  |  |  |  |
| CC(=O)Nc1ccc(OCC(O)CNC(C)C)cc1 (stereo not drawn) [PRACTOLOL] | 1.64 ×10⁻⁶ cm/s | 1.24 ×10⁻⁶ cm/s | 1.42 | 1.32 |  |  |  |  |
| Cc1c2oc3c(C)ccc(C(=O)N[C@@H]4C(=O)N[C@H](C(C)C)C(=O)N5CCC[C@H]5C(=O)N(C)CC(=O)N(C)[C@@H](C(C)C)C(=O)O[C@@H]4C)c3nc-2c(C(=O)N[C@@H]2C(=O)N[C@H](C(C)C)C(=O)N3CCC[C@H]3C(=O)N(C)CC(=O)N(C)[C@@H](C(C)C)C(=O)O[C@@H]2C)c(N)c1=O [DACTINOMYCIN] (I: T[dV]P[Sar][NMeV] / II: T[dV]P[Sar][NMeV]; ester I:1-I:C, II:1-II:C; linker I:N-II:N via Actinocin(9to1)) | 1.6 ×10⁻⁶ cm/s | < 0.021 ×10⁻⁶ cm/s | 1.2 | > 80 | is not a substrate [-] |  |  |  |

| Structure (SMILES) | Papp B→A ([1]; MDCK-MDR1, Papp) | Papp A→B ([2]; MDCK-MDR1, Papp) | Ratio_ATPase activity [3] | efflux ratio ([4]; MDCK-MDR1, Ratio_Papp) | Activity [5] | Papp B→A ([1]; MDCK-MDR1) | Papp A→B ([2]; MDCK-MDR1) | efflux ratio ([4]; MDCK-MDR1) |
| --- | --- | --- | --- | --- | --- | --- | --- | --- |
| CCC1=C[C@@H]2CN(C1)Cc1c([nH]c3ccccc13)[C@@](C(=O)OC)(c1cc3c(cc1OC)N(C)[C@H]1[C@@](O)(C(=O)OC)[C@H](OC(C)=O)[C@]4(CC)C=CCN5CC[C@]31[C@@H]54)C2 [VINORELBINE] | 17.6 ×10⁻⁶ cm/s | 0.252 ×10⁻⁶ cm/s | 1.15 | 69.8 | is not a substrate [-] |  |  |  |
| COc1cc2c(c(OC)c1OC)-c1ccc(OC)c(=O)cc1[C@@H](NC(C)=O)CC2 [COLCHICINE] |  |  | 1.23 |  | is not a substrate [-] | 20.2 ×10⁻⁶ cm/s | 1.79 ×10⁻⁶ cm/s | 11.3 |
| COc1cccc2c1C(=O)c1c(O)c3c(c(O)c1C2=O)C[C@@](O)(C(=O)CO)C[C@@H]3O[C@H]1C[C@H](N)[C@H](O)[C@H](C)O1 [DOXORUBICIN] | 0.973 ×10⁻⁶ cm/s | 1.45 ×10⁻⁶ cm/s | 0.95 | 0.67 |  |  |  |  |
| CC(C)(C)NC(=O)[C@@H]1C[C@@H]2CCCC[C@@H]2CN1C[C@@H](O)[C@H](Cc1ccccc1)NC(=O)[C@H](CC(N)=O)NC(=O)c1ccc2ccccc2n1 | 49.5 ×10⁻⁶ cm/s | 0.301 ×10⁻⁶ cm/s | 7.11 | 165 |  |  |  |  |
| COC(=O)[C@@H]1[C@H]2C[C@H]3c4[nH]c5ccccc5c4CCN3C[C@@H]2CC[C@@H]1O [YOHIMBINE] | 50.1 ×10⁻⁶ cm/s | 42.9 ×10⁻⁶ cm/s | 1.05 | 1.17 |  |  |  |  |
| CC[C@H]1OC(=O)[C@H](C)[C@@H](O[C@H]2C[C@@](C)(OC)[C@@H](O)[C@H](C)O2)[C@H](C)[C@@H](O[C@@H]2O[C@H](C)C[C@H](N(C)C)[C@H]2O)[C@](C)(O)C[C@@H](C)C(=O)[C@H](C)[C@@H](O)[C@]1(C)O [ERYTHROMYCIN] | 1.35 ×10⁻⁶ cm/s | 0.094 ×10⁻⁶ cm/s |  |  |  |  |  |  |
| CN(C)C(=O)C(CCN1CCC(O)(c2ccc(Cl)cc2)CC1)(c1ccccc1)c1ccccc1 [LOPERAMIDE] |  |  | 3.75 |  |  | 77.6 ×10⁻⁶ cm/s | 9.98 ×10⁻⁶ cm/s | 7.77 |
| CN(C)CCC(c1ccc(Cl)cc1)c1ccccn1 (racemic) [CHLORPHENIRAMINE] | 64.2 ×10⁻⁶ cm/s | 56.2 ×10⁻⁶ cm/s | 0.97 | 1.14 |  |  |  |  |
| COc1ccc([C@@H]2Sc3ccccc3N(CCN(C)C)C(=O)[C@@H]2OC(C)=O)cc1 [DILTIAZEM] | 67.6 ×10⁻⁶ cm/s | 41.3 ×10⁻⁶ cm/s | 2.64 | 1.64 |  |  |  |  |
| COc1cc2c(cc1OC)CN(CCc1ccc(NC(=O)c3cccc4c(=O)c5cccc(OC)c5[nH]c34)cc1)CC2 | 1.86 ×10⁻⁶ cm/s | 0.212 ×10⁻⁶ cm/s |  |  |  |  |  |  |
| COC(=O)C1=C(C)NC(C)=C(C(=O)OC)C1c1ccccc1[N+](=O)[O-] [NIFEDIPINE] |  |  |  |  | substrate [+] |  |  |  |
| CC[C@@]1([C@@H]2O[C@@H]([C@H]3O[C@@](O)(CO)[C@H](C)C[C@@H]3C)C[C@@H]2C)CC[C@H]([C@]2(C)CC[C@]3(C[C@H](O)[C@@H](C)[C@@H]([C@@H](C)[C@@H](OC)[C@H](C)C(=O)O)O3)O2)O1 [MONENSIN] |  |  | 6.71 |  |  | 29.4 ×10⁻⁶ cm/s | 10.2 ×10⁻⁶ cm/s | 2.88 |
| COC(=O)[C@H]1[C@H]2C[C@@H]3c4[nH]c5cc(OC)ccc5c4CCN3C[C@H]2C[C@@H](OC(=O)c2cc(OC)c(OC)c(OC)c2)[C@@H]1OC [RESERPINE] | 25.3 ×10⁻⁶ cm/s | 6.81 ×10⁻⁶ cm/s | 3.85 | 3.71 |  |  |  |  |
| CCOc1ccc(-c2nc3cc(-c4nc5cc(N6CCN(C)CC6)ccc5[nH]4)ccc3[nH]2)cc1 |  |  | 0.86 |  |  | 2.6 ×10⁻⁶ cm/s | 0.335 ×10⁻⁶ cm/s | 7.75 |
| CN(C)C(=O)Oc1ccc[n+](C)c1 [PYRIDOSTIGMINE] |  |  | 0.89 |  |  | 1.26 ×10⁻⁶ cm/s | 1.02 ×10⁻⁶ cm/s | 1.24 |
| Cc1c(O)cccc1C(=O)N[C@@H](CSc1ccccc1)[C@H](O)CN1C[C@H]2CCCC[C@H]2C[C@H]1C(=O)NC(C)(C)C | 33.8 ×10⁻⁶ cm/s | 3.81 ×10⁻⁶ cm/s | 5.21 | 8.86 |  |  |  |  |
| CN/C(=N/CCSCc1nc[nH]c1C)NC#N [CIMETIDINE] |  |  | 1.31 |  |  | 2.69 ×10⁻⁶ cm/s | 1.23 ×10⁻⁶ cm/s | 2.19 |
| C[C@]12CC[C@H]3[C@@H](CCC4=CC(=O)CC[C@@]43C)[C@@H]1CC[C@@H]2O [TESTOSTERONE] |  |  | 1.32 |  |  | 66.8 ×10⁻⁶ cm/s | 91.6 ×10⁻⁶ cm/s | 0.73 |
| C=C[C@H]1C[N@@]2CC[C@H]1C[C@@H]2[C@@H](O)c1ccnc2ccc(OC)cc12 [QUINIDINE] | 99 ×10⁻⁶ cm/s | 3.64 ×10⁻⁶ cm/s | 2.54 | 27.2 |  |  |  |  |
